US6599705B2, “Regulation of fungal gene expression” (priority 1997, dated 2003)

Legend:
C. albicans = assay: dig assay (nonfilamentous agar invasion) on YPD gradient plates; format: cell-based; settings: YPD agar with fluconazole gradient, two days, washed with water (FIG. 12)
Description: We have discovered that pathogenic fungi can display similar digging behavior, characterized by increased invasion into or adherence to a defined substrate. […] This behavior is similar to the reported digging behavior of S. cerevisiae. As is true for S. cerevisiae, non-hyphal agar invasion by any given C. albicans mutant strain correlates with the ability of that strain to form filaments under filament-inducing conditions (e.g., agar+serum). Thus, screening for compounds that block the digging phenotype in fungi will allow for identification of compounds that block filament formation and, as a result, pathogenesis. These compounds are considered useful as fungicides or fungistats. Similarly, screening for compounds that increase substrate invasion will allow for identification of compounds which may also increase production or yield of secondary metabolites.
An example of the dig assay is given below. To test whether a chemical compound would affect the nonfilamentous agar invasion behavior of nonmutant S. cerevisiae or C. albicans at concentrations much lower than the lowest growth inhibitory concentration, these fungi were spotted onto agar plates containing rich medium (YPD) and a gradient of the antifungal fluconazole. The plates were then incubated for two days at optimum growth temperatures and washed with water. […]

S. cerevisiae = assay: as above; format: cell-based; settings: YPD agar with fluconazole gradient, two days, washed with water (FIG. 12)
Description: Another example of a screen is based on the observation that yeast from haploid S. cerevisiae invade agar when grown on rich (YPD) medium without forming pseudohyphae. This nonfilamentous invasion behavior has been termed “digging,” and the assay used to detect this behavior has been termed the “dig assay.” Roberts and Fink, supra. […] Mutant strains defective for digging are referred to as “dig minus,” or “dig−.” The correlation of pseudohyphal invasion and behavior in the dig assay is an essential aspect of this screen. The dig assay is comparatively easy to perform relative to pseudohyphal invasion assays, and, as it occurs in haploid cells, is more amenable to genetic approaches that rely upon recessive mutations.
An example of the dig assay is given below. To test whether a chemical compound would affect the nonfilamentous agar invasion behavior of nonmutant S. cerevisiae or C. albicans at concentrations much lower than the lowest growth inhibitory concentration, these fungi were spotted onto agar plates containing rich medium (YPD) and a gradient of the antifungal fluconazole. The plates were then incubated for two days at optimum growth temperatures and washed with water. […] This assay can be performed on other dimorphic fungi, such as U. maydis, as well as on other fungi. […]

OC(Cn1cncn1)(Cn1cncn1)c1ccc(F)cc1F [fluconazole]
inhibition of agar invasion relative to growth inhibition (C. albicans): inhibition of agar invasion at significantly lower concentrations of fluconazole than those necessary to inhibit growth | inhibition of agar invasion relative to growth inhibition (S. cerevisiae): inhibition of agar invasion at significantly lower concentrations of fluconazole than those necessary to inhibit growth
